From US4888287A, “Rapid differentiation of fungi from bacteria using polyene antibiotics” (Eastman Kodak Company, priority 1986, dated 1989)

What was measured:
[1] = test system: C. albicans; experiment: Inhibition of RIND IX reduction by C. albicans (yeast) in solution (Example 1, Table II); assay type: cell-based, Candida albicans (ATCC 14053)
Method: E. coli and S. aureus were grown overnight in BHI broth at 37° C. C. albicans and A. flavus were grown overnight at 25° C. in SAB broth with agitation. The cells were harvested by centrifugation, washed and resuspended in 0.05 molar N-2-hydroxyethylpiperazine-N'-2-ethanesulfonic acid (HEPES) buffer (pH 7.8).
Dispersions containing RIND compounds were prepared by dissolving, for example, RIND VII from Table I above in N,N-dimethylformamide (DMF) at 16 mg compound per ml of solvent. An aliquot (250 μl) of the resulting solution was added to 500 μl of TRITON X-100 surfactant. This mixture was then added dropwise with stirring to 25 ml of 0.05 molar HEPES buffer.
The following materials were used in this example: stock solutions of RIND IX compound dispersion prepared as described above, glucose (10% in water), trimethyl-1,4-benzoquinone ETA (1.5 mg/ml methanol), and the antibiotics (25 mg/ml in dimethyl sulfoxide, except that filipin was 12.5 mg/ml of solvent). Bacteria and yeast were grown as described above. The approximate final cell concentrations in the assay mixture were 4.2×10^8 cells/ml of E. coli, 7.1×10^8 cells/ml of S. aureus, and 7×10^5 of C. albicans.
Test solutions were prepared by adding in order: 1.2 ml of HEPES buffer, 50 μl glucose solution, 1.5 ml of RIND IX dispersion, 100 μl of antibiotic solution, 100 μl of cell suspension and 25 μl of ETA solution. Cell control solutions contained all reagents except antibiotics. Background controls consisted of both buffer and solution controls. The buffer control contained all reagents except antibiotics and cells. The solution control contained all reagents except cells. Optical density readings (OD) were measured at 635 nm at 0 minutes and after incubation at 37° C. for 30 minutes for test and Control solutions, and the change in density (ΔOD) was determined. […] The corrected percent inhibition is calculated by dividing the difference between the ΔOD obtained from the Control without antibiotic and the ΔOD of the test solution, by ΔOD of the Control without antibiotic. All readings were corrected by subtracting readings of the appropriate background control.
Solutions containing 2.9 ml HEPES, 50 μl of the antibiotic solution, and 100 μl cell solution were incubated at 37° C. for 30 minutes, centrifuged for 10 minutes and decanted. The resulting pellet was then treated with 1.4 ml HEPES, 50 μl glucose solution, 1.5 ml RIND IX dispersion and 25 μl ETA solution, mixed well and the optical densities recorded as described above in Method 1. The corrected percent inhibition data was calculated as described in Method 1 above.

[2] = test system: S. aureus; experiment: Inhibition of RIND IX reduction by S. aureus (gram-positive) in solution (Example 1, Table II); assay type: cell-based, Staphylococcus aureus (ATCC 25923); settings: Method 1, 635 nm, 37° C., 30 min
Method: (§1) gram-negative microorganism Escherichia coli (ATCC 25922), gram-positive microorganism Staphylococcus aureus (ATCC 25923), and Candida albicans yeast cells (ATCC 14053), brain heart infusion broth (BHI) and Sabaroud's dextrose broth (SAB) from Difco Laboratories (Detroit, Michigan, U.S.A.), and Aspergillus flavus (ATCC 20047), a mold from American Type Culture Collection (Rockville, Maryland, U.S.A.).
(§2) E. coli and S. aureus were grown overnight in BHI broth at 37° C. C. albicans and A. flavus were grown overnight at 25° C. in SAB broth with agitation. […]
(§3) Test solutions were prepared by adding in order: 1.2 ml of HEPES buffer, 50 μl glucose solution, 1.5 ml of RIND IX dispersion, 100 μl of antibiotic solution, 100 μl of cell suspension and 25 μl of ETA solution. […] Optical density readings (OD) were measured at 635 nm at 0 minutes and after incubation at 37° C. for 30 minutes for test and Control solutions, and the change in density (ΔOD) was determined. Table II below lists the results, expressed as corrected percent inhibition of the reduction of the RIND compound. The corrected percent inhibition is calculated by dividing the difference between the ΔOD obtained from the Control without antibiotic and the ΔOD of the test solution, by ΔOD of the Control without antibiotic. All readings were corrected by subtracting readings of the appropriate background control. […]

[3] = test system: E. coli; experiment: Inhibition of RIND IX reduction by E. coli (gram-negative) in solution (Example 1, Table II); assay type: cell-based, Escherichia coli (ATCC 25922)
Method: as §1, §2, §3

[4] = Reduction potential E1/2 of the quinone nucleus of RIND compounds (Table I); assay type: physicochemical; settings: quinone nucleus with H in place of the releasing group; denoted *: measured in acetonitrile, saturated calomel electrode
Description: Examples of such nuclei are presented below.
Preferably, the E1/2 is from about +100 mV to about +400 mV as measured in water, or from about -650 to about -300 mV as measured in acetonitrile. […] Further details of measuring the E1/2 are described below prior to Table I. The desired E1/2 is achieved by appropriate electron withdrawing groups on the CAR-nucleus, or by a strained fused ring attached to the nucleus or by a combination of both.
Representative RIND compounds are listed in Table I below in reference to the following structure: [drawing 3] The E1/2 values in Table I were determined for the quinone nucleus of this structure having a hydrogen atom in place of [drawing 4] The E1/2 values (where available) were measured in an aqueous emulsion of the quinone dissolved in N,N-dimethylformamide, a nonionic surfactant (for example, TRITON X-100) and sodium phosphate buffer (pH 7). A standard calomel electrode was used as a standard. Some E1/2 values (denoted by *) were measured in acetonitrile using a saturated calomel electrode as a standard. E1/2 values not available are denoted by "NA".

[5] = Method 1, 635 nm, 37° C., 30 min
[6] = Method 2, preincubation for 1 hour, 635 nm

Compound	Corrected % Inhibition [1, 5]	Corrected % Inhibition [2]	also measured
C[C@@H]1[C@H](O)[C@@H](C)/C=C/C=C/CC/C=C/C=C/C=C/C=C/C(O[C@H]2O[C@H](C)[C@@H](O)[C@H](N)[C@@H]2O)CC2O[C@](O)(CC(O)C(O)CCC(O)CC(O)CC(O)CC(=O)O[C@H]1C)CC(O)C2C(=O)O (some centres unmarked) [Nystatin, nystatin]	76.2%	9.8%	–
C[C@@H]1[C@H](O)[C@@H](C)/C=C/C=C/C=C/C=C/C=C/C=C/C=C/[C@H](O[C@@H]2O[C@H](C)[C@@H](O)[C@H](N)[C@@H]2O)C[C@@H]2O[C@](O)(C[C@@H](O)C[C@@H](O)[C@H](O)CC[C@@H](O)C[C@@H](O)CC(=O)O[C@H]1C)C[C@H](O)[C@H]2C(=O)O [Amphotericin B, amphotericin B]	–	–	Corrected % Inhibition [3, 5]: 15.1%
candicidin	–	–	Corrected % Inhibition [1, 6]: 62.8%; Corrected % Inhibition [3, 6]: 12.5%
C[C@@H]1C/C=C/C=C/C=C/C=C/[C@H](O[C@@H]2O[C@H](C)[C@@H](O)[C@H](N)[C@@H]2O)C[C@@H]2O[C@](O)(C[C@@H](O)C[C@H]3O[C@@H]3/C=C/C(=O)O1)C[C@H](O)[C@H]2C(=O)O [Natamycin, natamycin]	77.9%	0.3%	–
CN(CC1=C(c2ccccc2)C(=O)C(CN(C)C(=O)Oc2ccc(N=Nc3ccc([N+](=O)[O-])cc3S(C)(=O)=O)c3c(NS(=O)(=O)c4cccc(S(N)(=O)=O)c4)cccc23)=C(c2ccccc2)C1=O)C(=O)Oc1ccc(N=Nc2ccc([N+](=O)[O-])cc2S(C)(=O)=O)c2c(NS(=O)(=O)c3cccc(S(N)(=O)=O)c3)cccc12 [IV]	–	–	E1/2 [4]: -460 mV
